Reference: US20080227638A1, “Use of abscisic acid to enhance growth control” (priority 2007, published 2008)

Columns and labels:
Assay type in all cases: in vivo
[1] = tested on: Kentucky bluegrass; assay: Greenhouse Kentucky bluegrass height and quality, ABA and trinexapac-ethyl (Example 1); details: for Quality: visual 0-9 scale
Procedure: Greenhouse studies were conducted at the Research Farm of Valent BioSciences Corporation (Long Grove, Ill.). Grasses were grown in pots (18 cm in diameter and 18 cm in height) filled with Promix BX (available from Premier Horticulture Inc. Quakertown, Pa.). Grass was irrigated daily by an overhead irrigation system. The irrigation system was set up with multiple Tornado Mist Spray Heads (10 GPH at 40 PSI-Wetted diameter, NDS/Raindrip, Woodland Hills, Calif.). Spray heads were 1-meter apart from each other and 75 cm above grass canopy. Grass was cut with a scissor at 2.5 cm height and fertilizer (1 g/L all purpose fertilizer 20-20-20, available from The Scotts Company, Marysville, Ohio) was applied once per week.
(§1) Chemical solutions were prepared with distilled water. Tween 20 (0.05% v/v) was used as an, adjuvant. Both trinexapac-ethyl (commercial product Primo Maxx, 11.3% active ingredient) and paclobutrazol (commercial product Trimmit 2SC, 22.3% active ingredient) were purchased from Syngenta Crop Protection Inc. (Greensboro, N.C.). Uniconazole-P (commercial product Sumagic, 0.55% active ingredient) was obtained from Valent U.S.A. Corporation (Walnut Creek, Calif.).
(§2) When treated with paclobutrazol or uniconazole-P, turfgrass received irrigation within 24 hours after application to flush chemicals to the root zone. After treatment, turfgrasses were arranged in a randomized complete block experimental design. Turfgrass quality, turfgrass height or clip fresh weight was measured on assigned dates. Turfgrass quality was visually rated on a 0-9 scale based on the color, uniformity and density of the grass with 0 as the worst and 9 as the best. Turfgrass height was measured as the distance between canopy surface and soil. Clips were collected from each plot; all plots were cut to a uniform height.
(§3) All experiments were randomized complete block experimental design. Data were analyzed by analysis of variance. Duncan's new multiple range tests at α=0.05 were used for mean separations.
Kentucky bluegrass sod (unknown variety) was purchased from Deak sod farms, Inc. (Union Grove, Wis.). Grass was grown in the greenhouse in pots (n=6 pots per treatment) for establishment before treatment. […] Tween 20 (0.05% w/v) was included as an adjuvant. Turfgrass canopy was not cut during the experimental period.

[2] = tested on: creeping bentgrass; assay: Golf course green creeping bentgrass height, ABA and trinexapac-ethyl (Example 4)
Procedure: (§4) Field studies were conducted at the nursery green or the practice green at Countryside golf course (Mundelein, Ill.). Both greens were sand based and growing Penncross creeping bentgrass. Grass was managed with typical Illinois golf course management practices.
as §1, §2, §3
(§5) Tween 20 (0.05% w/v) was included as an adjuvant.

[3] = tested on: creeping bentgrass green; assay: Soil moisture of creeping bentgrass green, ABA and trinexapac-ethyl (Example 8); details: 25 ppm trinexapac-ethyl
Procedure: as §4, §1, §2, §3, §5

[4] = tested on: tomato (variety: Rutgers); assay: Tomato leaf transpiration, porometer (Example 9)
From the text: (§6) Tomato (variety: Rutgers) seeds were sown in 18-cell flat filled with Promix PGX (available from Premier Horticulture Inc. Quakertown, Pa.) and grown for 3 weeks to allow for germination and initial growth. Plants were then transplanted into pots (18 cm in diameter and 18 cm in height), filled with Promix BX (available from Premier Horticulture Inc. Quakertown, Pa.), and grown for one week before the chemical treatment. Plants received daily irrigation and weekly fertilizer (1 g/L all purpose fertilizer 20-20-20, available from The Scotts Company, Marysville, Ohio).
(§7) During the chemical treatment, a 15 mL (2.5 mL/plant) solution was foliar sprayed on the tomato canopy. Leaf transpiration rates were measured using a LI-1600 Steady State Porometer (LI-Cor, Lincoln, Nebr.) at 1, 2, 3, 4, 7, 10 and 15 days after treatment. Leaf transpiration rate was normalized to the percentage of control plant to minimize the experimental errors caused by environmental factors. Plant height was measured at 0, 2, 4, 7, 10 and 15 days after treatment. Growth rate was calculated based on the changes of plant height in certain intervals. The plants were harvested and the leaf number was counted at 15 days after treatment.

[5] = tested on: tomato (variety: Rutgers); assay: Tomato plant height, growth rate and leaf number (Example 9); details: for Leaf number: 15 days after treatment
From the text: as §6, §7

[6] = 40 ppm trinexapac-ethyl, 23 days after treatment
[7] = 80 ppm trinexapac-ethyl, 23 days after treatment
[8] = 160 ppm trinexapac-ethyl, 23 days after treatment
[9] = 250 ppm trinexapac-ethyl, day 2 after treatment
[10] = 250 ppm trinexapac-ethyl, day 4 after treatment
[11] = 250 ppm trinexapac-ethyl, day 7 after treatment
[12] = 250 ppm trinexapac-ethyl, day 10 after treatment
[13] = 250 ppm trinexapac-ethyl, day 15 after treatment
[14] = 500 ppm trinexapac-ethyl, day 2 after treatment
[15] = 500 ppm trinexapac-ethyl, day 4 after treatment
[16] = 500 ppm trinexapac-ethyl, day 7 after treatment
[17] = 500 ppm trinexapac-ethyl, day 10 after treatment
[18] = 500 ppm trinexapac-ethyl, day 15 after treatment
[19] = 1000 ppm trinexapac-ethyl, day 2 after treatment
[20] = 1000 ppm trinexapac-ethyl, day 4 after treatment
[21] = 1000 ppm trinexapac-ethyl, day 7 after treatment
[22] = 1000 ppm trinexapac-ethyl, day 10 after treatment
[23] = 1000 ppm trinexapac-ethyl, day 15 after treatment
[24] = 2000 ppm trinexapac-ethyl, day 2 after treatment
[25] = 2000 ppm trinexapac-ethyl, day 4 after treatment
[26] = 2000 ppm trinexapac-ethyl, day 7 after treatment
[27] = 2000 ppm trinexapac-ethyl, day 10 after treatment
[28] = 2000 ppm trinexapac-ethyl, day 15 after treatment

CCOC(=O)C1CC(=O)C(=C(O)C2CC2)C(=O)C1 (stereo not shown) [trinexapac-ethyl]
Turfgrass height ([1]; 40 ppm trinexapac-ethyl, 7 days after treatment): 9.5 cm | Turfgrass height [1, 6]: 18.0 cm | Quality [1, 6]: 7.8 | Turfgrass height ([1]; 80 ppm trinexapac-ethyl, 7 days after treatment): 7.4 cm | Turfgrass height [1, 7]: 17.3 cm | Quality [1, 7]: 8.0 | Turfgrass height ([1]; 160 ppm trinexapac-ethyl, 7 days after treatment): 6.1 cm | Turfgrass height [1, 8]: 13.3 cm | Quality [1, 8]: 7.0 | Turfgrass height ([2]; 12.5 ppm trinexapac-ethyl, 7 days after treatment): 6.0 cm | Turfgrass height ([2]; 12.5 ppm trinexapac-ethyl, 14 days after treatment): 8.5 cm | Turfgrass height ([2]; 50 ppm trinexapac-ethyl, 7 days after treatment): 4.3 cm | Turfgrass height ([2]; 50 ppm trinexapac-ethyl, 14 days after treatment): 5.5 cm | Soil moisture ([3]; 2 days after treatment): 11.2% | Soil moisture ([3]; 7 days after treatment): 12.7% | Transpiration ([4]; 250 ppm trinexapac-ethyl, day 1 after treatment): 91 % of control | Transpiration [4, 9]: 99 % of control | Transpiration ([4]; 250 ppm trinexapac-ethyl, day 3 after treatment): 91 % of control | Transpiration [4, 10]: 95 % of control | Transpiration [4, 11]: 100 % of control | Transpiration [4, 12]: 98 % of control | Transpiration [4, 13]: 98 % of control | Transpiration ([4]; 500 ppm trinexapac-ethyl, day 1 after treatment): 91 % of control | Transpiration [4, 14]: 95 % of control | Transpiration ([4]; 500 ppm trinexapac-ethyl, day 3 after treatment): 89 % of control | Transpiration [4, 15]: 96 % of control | Transpiration [4, 16]: 100 % of control | Transpiration [4, 17]: 99 % of control | Transpiration [4, 18]: 100 % of control | Transpiration ([4]; 1000 ppm trinexapac-ethyl, day 1 after treatment): 92 % of control | Transpiration [4, 19]: 96 % of control | Transpiration ([4]; 1000 ppm trinexapac-ethyl, day 3 after treatment): 91 % of control | Transpiration [4, 20]: 98 % of control | Transpiration [4, 21]: 100 % of control | Transpiration [4, 22]: 103 % of control | Transpiration [4, 23]: 99 % of control | Transpiration ([4]; 2000 ppm trinexapac-ethyl, day 1 after treatment): 95 % of control | Transpiration [4, 24]: 94 % of control | Transpiration ([4]; 2000 ppm trinexapac-ethyl, day 3 after treatment): 90 % of control | Transpiration [4, 25]: 98 % of control | Transpiration [4, 26]: 97 % of control | Transpiration [4, 27]: 99 % of control | Transpiration [4, 28]: 98 % of control | Leaf number ([5]; 250 ppm trinexapac-ethyl): 12.0 | Plant height ([5]; 250 ppm trinexapac-ethyl, day 0 after treatment): 10.3 cm | Growth rate [5, 9]: 1.7 cm/day | Plant height [5, 9]: 13.6 cm | Growth rate [5, 10]: 1.5 cm/day | Plant height [5, 10]: 16.4 cm | Growth rate [5, 11]: 2.6 cm/day | Plant height [5, 11]: 28.7 cm | Growth rate [5, 12]: 2.2 cm/day | Plant height [5, 12]: 32.3 cm | Growth rate [5, 13]: 2.7 cm/day | Plant height [5, 13]: 50.6 cm | Leaf number ([5]; 500 ppm trinexapac-ethyl): 11.7 | Plant height ([5]; 500 ppm trinexapac-ethyl, day 0 after treatment): 9.8 cm | Growth rate [5, 14]: 1.7 cm/day | Plant height [5, 14]: 13.1 cm | Growth rate [5, 15]: 1.5 cm/day | Plant height [5, 15]: 15.9 cm | Growth rate [5, 16]: 2.6 cm/day | Plant height [5, 16]: 28.3 cm | Growth rate [5, 17]: 2.2 cm/day | Plant height [5, 17]: 31.2 cm | Growth rate [5, 18]: 2.6 cm/day | Plant height [5, 18]: 50.7 cm | Leaf number ([5]; 1000 ppm trinexapac-ethyl): 11.7 | Plant height ([5]; 1000 ppm trinexapac-ethyl, day 0 after treatment): 10.0 cm | Growth rate [5, 19]: 1.2 cm/day | Plant height [5, 19]: 12.3 cm | Growth rate [5, 20]: 1.4 cm/day | Plant height [5, 20]: 15.4 cm | Growth rate [5, 21]: 2.4 cm/day | Plant height [5, 21]: 26.7 cm | Growth rate [5, 22]: 2.1 cm/day | Plant height [5, 22]: 31.3 cm | Growth rate [5, 23]: 2.8 cm/day | Plant height [5, 23]: 52.7 cm | Leaf number ([5]; 2000 ppm trinexapac-ethyl): 11.5 | Plant height ([5]; 2000 ppm trinexapac-ethyl, day 0 after treatment): 9.9 cm | Growth rate [5, 24]: 1.2 cm/day | Plant height [5, 24]: 12.2 cm | Growth rate [5, 25]: 1.5 cm/day | Plant height [5, 25]: 15.8 cm | Growth rate [5, 26]: 2.0 cm/day | Plant height [5, 26]: 23.9 cm | Growth rate [5, 27]: 2.0 cm/day | Plant height [5, 27]: 29.3 cm | Growth rate [5, 28]: 2.7 cm/day | Plant height [5, 28]: 50.6 cm
